Consider eleven compounds from paper PMC10254444, “Targeting Myeloperoxidase Activity and Neutrophil ROS Production to Modulate Redox Process: Effect of Ellagic Acid and Analogues” (Molecules, 2023).

In series [1] the target is T1, human myeloperoxidase (MPO) (Homo sapiens, UniProt P05164).
T1 construct: purchased Calbiochem Millipore
T1 sequence (P05164 49-745): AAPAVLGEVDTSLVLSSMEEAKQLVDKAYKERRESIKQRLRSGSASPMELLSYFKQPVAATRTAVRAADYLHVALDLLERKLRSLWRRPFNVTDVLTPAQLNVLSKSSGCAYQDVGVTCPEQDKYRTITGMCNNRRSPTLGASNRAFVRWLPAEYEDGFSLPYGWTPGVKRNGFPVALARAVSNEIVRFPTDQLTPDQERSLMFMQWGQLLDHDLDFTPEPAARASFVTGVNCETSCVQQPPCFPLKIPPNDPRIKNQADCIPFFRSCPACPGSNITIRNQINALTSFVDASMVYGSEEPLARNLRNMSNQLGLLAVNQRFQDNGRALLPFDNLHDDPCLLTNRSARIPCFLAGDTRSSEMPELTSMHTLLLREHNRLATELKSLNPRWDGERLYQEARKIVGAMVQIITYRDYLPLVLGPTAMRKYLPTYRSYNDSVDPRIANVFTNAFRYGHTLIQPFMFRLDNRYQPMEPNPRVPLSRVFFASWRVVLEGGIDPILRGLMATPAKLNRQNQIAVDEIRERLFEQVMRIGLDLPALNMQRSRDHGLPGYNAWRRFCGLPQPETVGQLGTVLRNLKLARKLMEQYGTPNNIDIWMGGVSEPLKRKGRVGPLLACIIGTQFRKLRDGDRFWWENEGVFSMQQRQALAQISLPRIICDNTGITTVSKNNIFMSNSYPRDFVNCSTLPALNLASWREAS
Kind of series: MPO peroxidase activity, classical assay (Amplex Red). The series is classed as biochemical. The following applies: concentration range 0.01 to 10 µM. The method, then: (§1) Measurement of the peroxidase activity of MPO was performed by a classical enzymatic assay and by SIEFED assay as described by Nyssen et al.. The MPO solution was prepared with purified human MPO in dilution buffer (PBS 20 mM at pH 7.4 with 5 g/L BSA and 0.1% Tween-20). The solutions of EA or analogue, at final concentrations ranging from 10^−8 M to 10^−5 M, were incubated for 10 min with human MPO at a final concentration of 5 mU/mL before further use. The revelation of MPO activity was performed by monitoring the enzyme-catalyzed oxidation of Amplex Red in the presence of H2O2 (10 μM) and nitrite (4.5 mM) in phosphate buffer at pH 7.4.
After incubation, mixtures containing 100 μL of EA/analogue or vehicle (DMSO) and MPO were loaded into wells of microtiter plates (transparent), and the peroxidase activity was measured by adding 10 μL sodium nitrite solution (4.5 mM, final concentration) and 100 μL of the reactional solution containing 10 µM H2O2 and 40 µM Amplex® Red (AR) in phosphate buffer (50 mM) at pH 7.4. The oxidation of AR into the fluorescent resorufin adduct (λexcitation = 544 nm; λemission = 590 nm) was monitored for 30 min at 37 °C with a fluorescent plate reader (Fluoroskan Ascent, Fisher Scientific, Hampton, NH, USA). To eliminate the possibility of the artifact reactions that might arise from MPO activity or its natural substrate (H2O2), the direct reaction of ellagic acid or an analogue with H2O2 was performed in phosphate buffer (PBS) without the addition of human MPO.

Series [2] has as its target T2, Horseradish peroxidase (HRP) (Armoracia rusticana, UniProt P00433).
T2 construct: purchased Merck (Darmstadt, Germany)
T2 sequence (P00433 31-338 limits assumed): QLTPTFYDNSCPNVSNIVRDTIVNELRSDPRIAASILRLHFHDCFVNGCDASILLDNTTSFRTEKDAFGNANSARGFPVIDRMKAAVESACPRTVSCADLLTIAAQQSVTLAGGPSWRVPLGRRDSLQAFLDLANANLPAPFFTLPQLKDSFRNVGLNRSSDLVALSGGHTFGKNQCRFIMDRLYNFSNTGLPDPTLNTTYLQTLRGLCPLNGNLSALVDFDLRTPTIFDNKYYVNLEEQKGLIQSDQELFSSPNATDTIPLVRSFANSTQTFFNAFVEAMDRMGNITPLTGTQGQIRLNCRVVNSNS
Kind of series: HRP-catalyzed oxidation of L012 (chemiluminescence). In kind it is biochemical. How it is done:
[…] (HRP) reacts with hydrogen peroxide (H2O2), yielding “compound I (HRP^+.-Fe (IV=O))”, which is a reactive intermediate of HRP that is able to oxidize any potential reducing agent. Briefly, 2 μL of compound or reference molecule (ellagic acid) were incubated in phosphate buffer at pH 7.4 (153 μL, 50 mM) containing 5 μL HRP (100 µg/L), 20 μL L0-12 (10^−3 M), and 20 μL H2O2 (1 mM), and the chemiluminescence was immediately measured using a Fluoroskan Ascent 96-plate reader (ThermoLabsystem, Finland) at 37 °C for 30 min [32, 34]. The analysis was conducted in a 96-well microtiter plate. All the assays were performed in triplicate and repeated at least twice (N = 2; n = 6). The relative activity in terms of inhibition percentage of the tested compound or reference (ellagic acid) was compared to a control in the presence of DMSO taken as a solvent. The inhibition percentage was calculated using a similar formula (Equation (1)) as described above.

The nature of series [3]: DPPH radical scavenging assay. How it is done:
The DPPH assay was performed according to the method developed by Brand-Williams et al., though slightly modified. A solution of 1 mM DPPH in absolute methanol was stirred for 40 min. Absorbance of the solution was adjusted to 0.650 ± 0.020 at 517 nm using fresh absolute methanol. For replicates, the DPPH assay was performed using a microplate reader. For this, 2 µL of EA taken as a standard or sample (EA analogue) were mixed with 198 µL of DPPH solution and incubated for 30 min in the dark covered with aluminum foil. When reacting with an antioxidant, the DPPH• radical is converted into DPPH, and its color changes from purple to yellow. The antioxidant effect may be easily evaluated by observing the decrease in visible absorption. The absorbance decrease was monitored at 510 nm for 30 min with a Multiskan Ascent 96-plate reader (ThermoLabsystem, Finland). A control consisted of 2 µL of DMSO in 198 µL of DPPH solution. A similar formula (Equation (1)) was applied to determine the DPPH radical-scavenging activity.

For series [4], the target named is T1, human myeloperoxidase (MPO). Kind of series: MPO activity by SIEFED assay. In kind it is biochemical. How it is done:
as §1
Samples with MPO and various concentrations of […] were prepared and incubated as with the classical assay. An amount of 100 μL of each mixture (MPO alone or MPO + EA/DMSO) was then loaded into the wells of a SIEFED microtiter plate coated with rabbit polyclonal antibodies (3 μg/mL) against human MPO and incubated for 2 h at 37 °C in darkness. After washing up the wells, the activity of the enzyme captured by the antibodies was measured by adding 10 μL sodium nitrite solution (4.5 mM, final concentration) and 100 μL of a reactional solution containing 10 μM H2O2 and 40 μM Amplex® in phosphate buffer (50 mM) at pH 7.4. The oxidation of Amplex® Red into the fluorescent adduct resorufin (λexcitation = 544 nm; λemission = 590 nm) was monitored for 30 min at 37 °C with a fluorescent plate reader (Fluoroskan Ascent, Fisher Scientific). As for the MPO direct assay, a control assay set as the relative value of MPO activity was performed with purified MPO in the presence of PBS instead of the samples of EA or analogue dissolved in DMSO. In this SIEFED assay, MPO was bonded by the antibodies into the wells, and EA/analogue was discarded in the washing step before starting the measurement of the enzymatic activity. For both MPO assays, the inhibition percentage was calculated using a similar formula (Equation (1)) as described above.

Series [5] is described as follows: ABTS radical cation assay. How it is done:
The ABTS assay was based on the method described by Re et al.. For the generation of ABTS^•+ radicals, sodium persulfate (2.45 mM) aqueous solution was mixed with ABTS (7 mM) and incubated overnight in the dark to obtain a dark-colored solution. Stock solution of ABTS^•+ was then diluted by adding pure methanol (100%) to obtain an absorbance of 0.70 (±0.02) at 734 nm at 30 °C. To obtain more repetition, the ABTS assay was performed using a microplate reader (ThermoLabsystem, Finland). An aliquot of 2 µL of the tested compound (EA or analogue) was added to 198 µL of ABTS^•+, and the decrease in absorbance was monitored at 740 nm after 30 min [32]. During this reaction, the blue-green ABTS radical cation is converted back into its colorless neutral form in the presence of the potential antioxidant molecule. A control consisted of 2 µL of DMSO in 198 µL of ABTS^•+ solution. The reducing capacity was determined according to the formula:% inhibition = (Acontrol − ASample) × 100/AControl(1)

The conditions of series [6]: in mice; cited from earlier work.
A further series is described as follows: Solubility. The series is classed as physicochemical.
Details of series [7]: method as in PMID 19015354. Conditions: after intraperitoneal injection; cited from earlier work.

Consider `O=C(Nc1ccc(OC(=O)c2cc(O)c(O)c(O)c2)cc1)c1cc(O)c(O)c(O)c1` [compound 7, 4-(3,4,5-trihydroxybenzamido)phenyl 3,4,5-trihydroxybenzoate], for which, in series [1], the “MPO inhibition (classical assay)” value was determined as 94%. Further, in series [2], the “HRP inhibiting activity (in words)” value is recorded as “reduced antioxidant effect”. For the same compound, the values for the IC50 in series [2], in series [3] and in series [5] were 5.81 ± 0.49 µM, 3.14 ± 0.72 µM and 4.68 ± 0.13 µM, respectively. For the same compound, in series [4], the “MPO activity, SIEFED assay (in words)” value is “superior to ellagic acid”.

`O=C(OCCCOC(=O)c1cc(O)c(O)c(O)c1)c1cc(O)c(O)c(O)c1` [compound 2]: the IC50 (as a rule, the concentration needed to halve the response being measured) in series [2] was found to be 2.28 ± 0.11 µM; in series [3], 2.86 ± 0.13 µM; in series [5], 5.5 ± 0.16 µM.

Turning to `O=C(OCCCOC(=O)c1cc(O)c(O)c(O)c1)c1cc(O)cc(O)c1` [compound 3, 3-((3,5-dihydroxybenzoyl)oxy)propyl 3,4,5-trihydroxybenzoate], in series [1], the “MPO inhibition (classical assay)” value was found to be 98%. Besides, the half-maximal inhibitory concentration (IC50) in series [2] came to 3.19 ± 0.07 µM; in series [3], 5.78 ± 0.13 µM; in series [5], 5.52 ± 0.34 µM.

For `O=C(OCCCOC(=O)c1cc(O)c(O)c(O)c1)c1ccccc1` [compound 13, 3-(benzoyloxy)propyl 3,4,5-trihydroxybenzoate], the IC50 in series [2] is 5.46 ± 0.01 µM; in series [3], 4.91 ± 0.26 µM; in series [5] it was 6 ± 0.31 µM.

Consider `O=C(OCCCOC(=O)c1cc(O)c(O)c(O)c1)c1ccc(O)c(O)c1` [compound 5, 3-((3,4-dihydroxybenzoyl)oxy)propyl 3,4,5-trihydroxybenzoate], for which the 50% inhibitory concentration (IC50) stood at 3.73 ± 0.21 µM in series [2], 4.24 ± 0.36 µM in series [3] and 5.48 ± 0.23 µM in series [5].

Consider `O=C(NCCCNC(=O)c1cc(O)c(O)c(O)c1)c1cc(O)c(O)c(O)c1` [compound 12], for which the “HRP inhibiting activity (in words)” value in series [2] was “very good inhibition”. Also, the values for the IC50 in series [2], in series [3] and in series [5] were 3.06 ± 0.07 µM, 3.7 ± 0.45 µM and 5.86 ± 0.18 µM, respectively.

On to `O=C(Nc1cccc(OC(=O)c2cc(O)c(O)c(O)c2)c1)c1cc(O)c(O)c(O)c1` [compound 10, 3-(3,4,5-trihydroxybenzamido)phenyl 3,4,5-trihydroxybenzoate], for which the IC50 in series [2] was 1.02 ± 0.09 µM; in series [3] it was 5.27 ± 0.29 µM; in series [5], 6.22 ± 0.16 µM. Moreover, in series [4], the “MPO activity, SIEFED assay (in words)” value is “superior to ellagic acid”.

Regarding `O=C(NCCCOC(=O)c1cc(O)c(O)c(O)c1)c1cc(O)c(O)c(O)c1` [compound 9, 3-(3,4,5-trihydroxybenzamido) propyl 3,4,5-trihydroxybenzoate], the 50% inhibitory concentration (IC50) was found to be 1.81 ± 0.18 µM in series [2], 5.82 ± 0.35 µM in series [3] and 6.34 ± 0.39 µM in series [5].

Consider `O=c1oc2c(O)c(O)cc3c(=O)oc4c(O)c(O)cc1c4c23` [1a, 2,3,7,8-Tetrahydroxy [1]benzopyrano [5,4,3-cde][1]benzopyran-5,10-dione, reference compound], for which, in series [6], the oral bioavailability is listed as less than 30%. Further, in series [2], the “HRP inhibiting activity (in words)” value is listed as “strong inhibiting activity”. Further, the IC50 in series [3] stood at 5.64 ± 0.47 µM; in series [5], 6.01 ± 0.26 µM. The “solubility (in words)” value in the series “Solubility” is “low hydrosolubility”. Also, in series [7], the “curative activity in vivo (in words)” value is given as “curative activity in vivo”.

As for `O=C(OCCOC(=O)c1cc(O)c(O)c(O)c1)c1cc(O)c(O)c(O)c1` [compound 4], the IC50 in series [2] was found to be 2.84 µM; in series [3], 3.36 ± 0.25 µM; in series [5] it was 5.77 ± 0.01 µM.

`O=C(OCCCCOC(=O)c1cc(O)c(O)c(O)c1)c1cc(O)c(O)c(O)c1` [compound 8]: the results for the IC50 in series [2], in series [3] and in series [5] were 1.48 ± 1.17 µM, 5.96 ± 0.06 µM and 6.97 ± 0.04 µM, respectively.
